Data from patent US10294246B2, “Substituted boronic acids and boronate esters as immunoproteasome inhibitors” (MERCK PATENT GMBH, priority 2014, dated 2019).

Key:
[1] = target: human immunoproteasome (LMP7) (Homo sapiens (Human), UniProt P28062); test: Determination of LMP7 activity (fluorescence intensity assay, Suc-LLVY-AMC); assay type: biochemical; details: for Selectivity LMP7 vs Beta5: LMP7 versus Beta5; for IC50: purified human immunoproteasome 0.25 nM, Suc-LLVY-AMC 40 μM
Protocol: Determination of LMP7 Activity:
Measurement of LMP7 inhibition is performed in 384 well format based on fluorescence intensity assay.
(§1) Purified human immunoproteasome (0.25 nM) and serial diluted compounds in DMSO (range of concentrations from 30 μM to […]) or controls are incubated for 20 minutes at 25° C. in assay buffer containing 50 mM Tris pH 7.4, 0.03% SDS, 1 mM EDTA and 1% DMSO. The reaction is initiated by the addition of the fluorogenic peptide substrate, Suc-LLVY-AMC (Bachem 1-1395), at a concentration of 40 μM. After 60 minutes of incubation at 37° C., fluorescence intensity is measured at λex=350 nm and λem=450 nm with a fluorescence reader (Perkin Elmer Envision reader or equivalent).

[2] = target: human constitutive proteasome (Beta5) (Homo sapiens (Human), UniProt P28074); test: Determination of Beta5 activity (fluorescence intensity assay, Suc-LLVY-AMC); assay type: biochemical; details: purified human constitutive proteasome 1.25 nM, Suc-LLVY-AMC 40 μM
Protocol: Determination of Beta5 Activity:
Measurement of Beta5 inhibition is performed in 384 well format based on fluorescence intensity assay.
as §1, with “constitutive proteasome (1.25” for “immunoproteasome (0.25”

Structure (SMILES) | Selectivity LMP7 vs Beta5 [1] | IC50 [1] | IC50 [2]
C[C@@H](C(=O)N[C@@H](Cc1coc2ccccc12)B(O)O)c1ccccc1 [Compound No. 45, [(1R)-2-(benzofuran-3-yl)-1-[[(2R)-2-phenylpropanoyl]amino]ethyl]-boronic acid] | +++ (50 ≤ Selectivity < 70) | < 50 nM | 500 to 5000 nM
CO[C@@H](C(=O)N[C@@H](CC1COc2c(C)cccc21)B(O)O)c1ccccc1 (stereo partly drawn) [Compound No. 93, [(1R)-1-[[(2R)-2-methoxy-2-phenyl-acetyl]amino]-2-(7-methyl-2,3-dihydrobenzofuran-3-yl)ethyl]boronic acid] | +++++ (Selectivity ≥ 100) | < 50 nM | > 5000 nM
O=C(COc1cccnc1)N[C@@H](Cc1coc2ccccc12)B(O)O [Compound No. 11, [(1R)-2-(benzofuran-3-yl)-1-[[2-(3-pyridyloxy)acetyl]amino]ethyl]-boronic acid] | ++ (10 ≤ Selectivity < 50) | < 50 nM | 50 to 500 nM
N#Cc1ccccc1CC(=O)N[C@@H](Cc1coc2c(Cl)cccc12)B(O)O [Compound No. 116, [(1R)-2-(7-chlorobenzofuran-3-yl)-1-[[2-(2-cyanophenyl)acetyl]amino]-ethyl]boronic acid] | +++++ (Selectivity ≥ 100) | < 50 nM | 500 to 5000 nM
CCOc1ccc(CC(=O)N[C@@H](Cc2coc3c(Cl)cccc23)B(O)O)nc1 [Compound No. 113, [(1R)-2-(7-chlorobenzofuran-3-yl)-1-[[2-(5-ethoxy-2-pyridyl)acetyl]amino]ethyl]boronic acid] | +++++ (Selectivity ≥ 100) | < 50 nM | 500 to 5000 nM
COc1ccc(C(F)(F)C(=O)N[C@@H](Cc2coc3ccccc23)B(O)O)cc1 [Compound No. 51, [(1R)-2-(benzofuran-3-yl)-1-[[2,2-difluoro-2-(4-methoxyphenyl)acetyl]-amino]ethyl]boronic acid] | +++++ (Selectivity ≥ 100) | – | 500 to 5000 nM
CCOc1ccc(CC(=O)N[C@@H](C[C@@H]2COc3ccccc32)B(O)O)nc1 [Compound No. 131, [(1R)-2-[(3S)-2,3-dihydrobenzofuran-3-yl]-1-[[2-(5-ethoxy-2-pyridyl)acetyl]amino]ethyl]boronic acid] | +++++ (Selectivity ≥ 100) | < 50 nM | 500 to 5000 nM
Cc1cccc2c1OC[C@@H]2C[C@H](NC(=O)Cc1ccccc1)B(O)O [Compound No. 127, [(1R)-2-[(3R)-7-methyl-2,3-dihydrobenzofuran-3-yl]-1-[(2-phenylacetyl)amino]ethyl]boronic acid] | ++ (10 ≤ Selectivity < 50) | 500 to 5000 nM | > 5000 nM
O=C(Cc1ccccc1OCCCO)N[C@@H](Cc1coc2ccccc12)B(O)O [Compound No. 55, [(1R)-2-(benzofuran-3-yl)-1-[[2-[2-(3-hydroxypropoxy)phenyl]acetyl]-amino]ethyl]boronic acid] | ++++ (70 ≤ Selectivity < 100) | < 50 nM | 500 to 5000 nM
N#Cc1ccccc1CC(=O)N[C@@H](C[C@H]1COc2c(Cl)cccc21)B(O)O [Compound No. 135, [(1R)-2-[(3R)-7-chloro-2,3-dihydrobenzofuran-3-yl]-1-[[2-(2-cyanophenyl)acetyl]amino]ethyl]boronic acid] | +++++ (Selectivity ≥ 100) | 50 to 500 nM | > 5000 nM
O=C(Cc1ncccn1)N[C@@H](Cc1coc2ccccc12)B(O)O [Compound No. 20, [(1R)-2-(benzofuran-3-yl)-1-[(2-pyrimidin-2-ylacetyl)amino]ethyl]-boronic acid] | ++ (10 ≤ Selectivity < 50) | < 50 nM | 50 to 500 nM
CCO[C@@H](C(=O)N[C@@H](CC1COc2ccccc21)B(O)O)c1ccccc1 (stereo partly drawn) [Compound No. 111, [(1R)-2-(2,3-dihydrobenzofuran-3-yl)-1-[[(2R)-2-ethoxy-2-phenyl-acetyl]amino]ethyl]boronic acid] | +++++ (Selectivity ≥ 100) | < 50 nM | > 5000 nM
O=C(Cc1cccnc1)N[C@@H](Cc1coc2ccccc12)B(O)O [Compound No. 8, [(1R)-2-(benzofuran-3-yl)-1-[[2-(3-pyridyl)acetyl]amino]ethyl]boronic acid] | +++ (50 ≤ Selectivity < 70) | < 50 nM | 50 to 500 nM
O=C(Cc1ccccn1)NC(Cc1coc2ccccc12)B(O)O (centres unmarked) [Compound No. 112, [2-(benzofuran-3-yl)-1-[[2-(2-pyridyl)acetyl]amino]ethyl]boronic acid] | +++++ (Selectivity ≥ 100) | < 50 nM | 500 to 5000 nM
O=C(Cc1ccccc1)N[C@@H](C[C@@H]1COc2c(Cl)cccc21)B(O)O [Compound No. 132, [(1R)-2-[(3S)-7-chloro-2,3-dihydrobenzofuran-3-yl]-1-[(2-phenylacetyl)amino]ethyl]boronic acid] | +++++ (Selectivity ≥ 100) | < 50 nM | 500 to 5000 nM

The next lines start with the values.

Selectivity LMP7 vs Beta5 [1] | IC50 [1] | IC50 [2] | Structure (SMILES)
+++++ (Selectivity ≥ 100) | 50 to 500 nM | > 5000 nM | COc1ccc(CC(=O)N[C@H](Cc2coc3c(C)cccc23)B(O)O)cc1 [Compound No. 81, [(1S)-1-[[2-(4-methoxyphenyl)acetyl]amino]-2-(7-methylbenzofuran-3-yl)ethyl]boronic acid]
+++++ (Selectivity ≥ 100) | < 50 nM | 50 to 500 nM | O=C(Cc1ccccc1)N[C@@H](Cc1coc2ccccc12)B(O)O [Compound No. 6, [(1R)-2-(benzofuran-3-yl)-1-[(2-phenylacetyl)amino]ethyl]boronic acid]
++ (10 ≤ Selectivity < 50) | 50 to 500 nM | > 5000 nM | COc1cccc(OC)c1CC(=O)N[C@@H](Cc1ccc(C)cc1C)B(O)O [Compound No. 42, [(1R)-1-[[2-(2,6-dimethoxyphenyl)acetyl]amino]-2-(2,4-dimethylphenyl)ethyl]boronic acid]
++++ (70 ≤ Selectivity < 100) | 50 to 500 nM | > 5000 nM | O=C(Cc1ccccc1)N[C@@H](Cc1cc2ccccc2o1)B(O)O [Compound No. 110, [(1R)-2-(benzofuran-2-yl)-1-[(2-phenylacetyl)amino]ethyl]boronic acid]
++ (10 ≤ Selectivity < 50) | < 50 nM | 50 to 500 nM | COc1ccc(OCCC(=O)N[C@@H](Cc2ccc(C)cc2)B(O)O)cc1 [Compound No. 5, [(1R)-1-[3-(4-methoxyphenoxy)propanoylamino]-2-(p-tolyl)ethyl]boronic acid]
+++++ (Selectivity ≥ 100) | < 50 nM | 500 to 5000 nM | Cc1ccc2c(C[C@H](NC(=O)Cc3ccccc3)B(O)O)coc2c1C [Compound No. 94, [(1R)-2-(6,7-dimethylbenzofuran-3-yl)-1-[(2-phenylacetyl)amino]ethyl]boronic acid]
++++ (70 ≤ Selectivity < 100) | < 50 nM | 50 to 500 nM | COCc1ccc(CC(=O)N[C@@H](Cc2coc3ccccc23)B(O)O)cc1 [Compound No. 30, [(1R)-2-(benzofuran-3-yl)-1-[[2-[4-(methoxymethyl)phenyl]acetyl]-amino]ethyl]boronic acid]
++ (10 ≤ Selectivity < 50) | 50 to 500 nM | > 5000 nM | Cc1ccc(C[C@H](NC(=O)[C@@H](O)c2ccccc2)B(O)O)cc1 [Compound No. 17, [(1R)-1-[[(2S)-2-hydroxy-2-phenyl-acetyl]amino]-2-(p-tolyl)ethyl]-boronic acid]
+++++ (Selectivity ≥ 100) | < 50 nM | 500 to 5000 nM | COc1ccc(CC(=O)N[C@@H](Cc2cc3ccccc3o2)B(O)O)cc1 [Compound No. 108, [(1R)-2-(benzofuran-2-yl)-1-[[2-(4-methoxyphenyl)acetyl]-amino]ethyl]boronic acid]
+++++ (Selectivity ≥ 100) | < 50 nM | 50 to 500 nM | O=C(Cc1ccccc1)N[C@@H](Cc1coc2c(F)cccc12)B(O)O [Compound No. 125, [(1R)-2-(7-fluorobenzofuran-3-yl)-1-[(2-phenylacetyl)amino]ethyl]-boronic acid]
++++ (70 ≤ Selectivity < 100) | < 50 nM | 500 to 5000 nM | CC(=O)Nc1ccc(CC(=O)N[C@@H](Cc2ccc(C)cc2C)B(O)O)cc1 [Compound No. 38]
+++ (50 ≤ Selectivity < 70) | < 50 nM | 500 to 5000 nM | O=C(Cc1ccncc1)N[C@@H](Cc1coc2ccccc12)B(O)O [Compound No. 19, [(1R)-2-(benzofuran-3-yl)-1-[[2-(4-pyridyl)acetyl]amino]ethyl]boronic acid]
